In patent US4645773A, “β-carboline-3-oxadiazolyl derivatives, and their use as psychotropic agents” (Schering Aktiengesellschaft, priority 1984, dated 1987):

Experiments:
benzodiazepine receptor [1] = experiment: displacement of 3H-flunitrazepam specific binding to benzodiazepine receptors (in vitro), rat forebrain membranes; conditions: rat forebrain suspension, 3H-flunitrazepam 1.0 nM, 0° C., 40-60 min, pH 7.1
Protocol: These sites are called benzodiazepine receptors. The displacement activity of the compounds of the invention has been determined by determining the IC50 value and the ED50 value.
The IC50 value represents the concentration which causes a displacement of 50% of the specific binding of ^3 H-flunitrazepam (1.0 nM, 0° C.) in samples comprising a total volume of 0.55 ml of a suspension of brain membrane, e.g from rats.
The displacement test is performed as follows:
0.50 ml of a suspension of non-treated rat forebrain in 25 mM KH2 PO4, pH=7.1 (5-10 mg tissue/sample) is incubated for 40-60 minutes at 0° C. together with ^3 H-diazepam (specific activity 87 Ci/mmol, 1.0 nM) or ^3 H-flunitrazepam (specific activity 87 Ci/mmol, 1.0 nM). After incubation, the suspension is filtered through "Whatman GF/C" glass fiber filters, the residue washed twice with cold buffer solution and the radioactivity measured by scintillation counting.
The test is repeated except that prior to the addition of the radioactive labelled benzodiazepine, a given amount or an excessive amount of the compound, the displacement capability of which is to be determined, is added. Based on the data obtained the IC50 value can be calculated.

benzodiazepine receptor [2] = experiment: in vivo inhibition of 3H-flunitrazepam binding to benzodiazepine receptors in mouse forebrain; conditions: mice, usually subcutaneous, 3H-flunitrazepam i.v. 15 min later, killed after further 20 min
Protocol: The ED50 value represents the dose (mg/kg) of a test substance which causes the specific binding of flunitrazepam to benzodiazepine receptors in a living brain to be reduced to 50% of the control value. Such an in vivo test is carried out as follows:
Groups of mice are injected with the test substance at different doses and usually subcutaneously. 15 minutes later ^3 H-flunitrazepam is administered intravenously to the mice and after further 20 minutes the mice are killed. Their forebrain membranes are removed and the radioactivity of these forebrain membranes is measured by scintillation counting. The ED50 value is determined from dose-response curves.

| Affinity for the benzodiazepine receptor, inhibition of 3H-flunitrazepam binding, IC50 (in vitro) (benzodiazepine receptor [1]) | Structure (SMILES) | inhibition of 3H-flunitrazepam binding, ED50 (in vivo) (benzodiazepine receptor [2]) |
| --- | --- | --- |
| 0.2 ng/mL | CCc1noc(-c2ncc3[nH]c4cccc(OC(C)C)c4c3c2COC)n1 | 0.2 mg/kg |
| 0.4 ng/mL | CCc1noc(-c2cc3c(cn2)[nH]c2ccc(C#CCN(C)C)cc23)n1 [3-[5-(3-ethyl-1,2,4-oxadiazole)-yl]-6-(3-dimethylaminopropargyl)-β-carboline] | 7.9 mg/kg |
| 0.4 ng/mL | CCc1noc(-c2ncc3[nH]c4cccc(OC5C=CCCC5)c4c3c2COC)n1 (stereo not drawn) | 0.75 mg/kg |
| 0.5 ng/mL | CCc1nc(-c2ncc3[nH]c4cccc(OCc5ccccc5)c4c3c2COC)no1 | 1.0 mg/kg |
| 0.4 ng/mL | COCc1c(-c2nc(C)no2)ncc2[nH]c3cccc(OCc4ccccc4)c3c12 | 0.9 mg/kg |
| 0.5 ng/mL | CCc1noc(-c2ncc3[nH]c4cccc(OC(C)C)c4c3c2C)n1 | 0.4 mg/kg |
| 0.3 ng/mL | CCCOc1cccc2[nH]c3cnc(-c4nc(CC)no4)c(COC)c3c12 [3-[5-(3-ethyl-1,2,4-oxadiazole)-yl]-4-methoxymethyl-5-propoxy-β-carboline] | 1.4 mg/kg |
| 0.4 ng/mL | CCc1noc(-c2ncc3[nH]c4cccc(OC5CCC5)c4c3c2COC)n1 | 0.6 mg/kg |
| 0.26 ng/mL | CCOCc1cccc2[nH]c3cnc(-c4nc(CC)no4)c(C)c3c12 | 0.4 mg/kg |
